Experimental data: the supplement of paper PMC10331698
± gives the standard deviation of the averaged measurements.

Experiments:
Assay in all cases: level (log10 ratio to DMSO vehicle control); higher = higher biomarker level / cell amount than vehicle control
Conditions in all cases: in DMSO
[1] = compound: C=C(C)C(=O)OCC(F)(F)C(F)(F)C(F)(F)C(F)(F)C(F)(F)C(F)(F)C(F)(F)F
Description: (§1)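 BioMAP Diversity Plus panel of 12 human primary cell co-culture systems (3C, 4H, LPS, SAg, BT, BF4T, BE3C, CASM3C, HDF3CGF, KF3CT, MyoF, Mphg). Compounds were added 1 h before stimulation and left for 24 h (MyoF 48 h; BT 72 h for soluble read-outs or 6 d for IgG). Biomarkers were read by ELISA, cytotoxicity by SRB, PBMC viability and proliferation by Alamar Blue. Each well value was divided by the mean of 8 DMSO control wells on the same plate and log10 transformed; duplicate blinded samples were tested at 4 concentrations.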

[2] = compound: NC(=O)C(F)(F)C(F)(F)C(F)(F)C(F)(F)C(F)(F)C(F)(F)C(F)(F)F [Perfluorooctanamide]
Description: as §1

[3] = compound: OCC(F)(F)C(F)(F)C(F)(F)F [1H,1H-Heptafluorobutanol]
Description: as §1

[4] = compound: O=S(=O)(O)C(F)(F)C(F)(F)C(F)(F)C(F)(F)C(F)(F)C(F)(F)C(F)(F)C(F)(F)F [Perfluorooctanesulfonic acid]
Description: as §1

[5] = compound: C=CC(=O)OCCC(F)(F)C(F)(F)C(F)(F)C(F)(F)F [2-(Perfluorobutyl)ethyl acrylate]
Description: as §1

[6] = compound: O=S(=O)(O)C(F)(F)C(F)(F)C(F)(F)C(F)(F)F [Perfluorobutanesulfonic acid]
Description: as §1

Row | Test System | level (log10) ([1]; 6700 nM) | level (log10) ([1]; 20000 nM) | level (log10) ([2]; 6700 nM) | level (log10) ([2]; 20000 nM) | level (log10) ([2]; 60000 nM) | level (log10) ([3]; 6700 nM) | level (log10) ([3]; 20000 nM) | level (log10) ([3]; 60000 nM) | level (log10) ([4]; 6700 nM) | level (log10) ([4]; 20000 nM) | level (log10) ([4]; 60000 nM) | level (log10) ([5]; 6700 nM) | level (log10) ([5]; 20000 nM) | level (log10) ([5]; 60000 nM) | level (log10) ([6]; 6700 nM) | level (log10) ([6]; 20000 nM) | level (log10) ([6]; 60000 nM)
1 | CASM3C:HLA-DR | -0.015 ± 0.017 | -0.0125 ± 0.0021 | 0.003 ± 0.041 | 0.0125 ± 0.0092 | 0.0005 ± 0.011 | 0.015 ± 0.0057 | -0.004 ± 0.0028 | 0.011 ± 0.0028 | -0.0365 ± 0.012 | -0.0465 ± 0.016 | -0.0395 ± 0.052 | -0.0245 ± 0.025 | -0.017 ± 0.014 | -0.0205 ± 0.011 | -0.0085 ± 0.0035 | -0.0075 ± 0.00071 | -0.0025 ± 0.0078
2 | HDF3CGF:M-CSF | 0.009 ± 0.033 | 0.0245 ± 0.03 | 0.001 ± 0.023 | 0.0055 ± 0.00071 | 0.027 ± 0.0014 | 0.0045 ± 0.035 | 0.0335 ± 0.00071 | 0.004 ± 0.02 | 0.0225 ± 0.018 | 0.018 ± 0.013 | -0.075 ± 0.0042 | -0.0445 ± 0.0092 | -0.154 ± 0.054 | -0.259 ± 0.12 | 0.011 ± 0.0085 | 0.0045 ± 0.0035 | 0.0025 ± 0.005
3 | KF3CT:IL-1alpha | -0.014 ± 0.023 | 0.0015 ± 0.0092 | -0.0055 ± 0.011 | 0.0125 ± 0.0064 | 0.039 ± 0.03 | 0 ± 0.0042 | 0 ± 0.0014 | -0.018 ± 0.0057 | 0.0105 ± 0.0064 | -0.0165 ± 0.00071 | -0.016 ± 0.0028 | -0.036 ± 0.0057 | -0.075 ± 0.013 | -0.059 ± 0.038 | -0.009 ± 0.0042 | -0.0085 ± 0.0078 | -0.006 ± 0.025
4 | BE3C:SRB | -0.0015 ± 0.0021 | -0.0025 ± 0.00071 | -0.005 ± 0.0057 | -0.003 ± 0.0057 | 0.0005 ± 0.0035 | -0.0115 ± 0.0078 | -0.0045 ± 0.011 | -0.0005 ± 0.0064 | -0.0095 ± 0.0064 | -0.2205 ± 0.00071 | -0.371 ± 0.016 | -0.0035 ± 0.005 | -0.0055 ± 0.0021 | -0.0015 ± 0.0021 | 0.001 | -0.004 ± 0.0028 | -0.003 ± 0.0014
5 | lMphg:M-CSF | -0.0185 ± 0.0035 | -0.0025 ± 0.033 | 0.0175 ± 0.011 | -0.0055 ± 0.042 | 0.0085 ± 0.059 | -0.005 ± 0.017 | 0.0045 ± 0.016 | 0.0125 ± 0.019 | -0.003 ± 0.013 | -0.008 ± 0.0085 | 0.03 ± 0.0042 | -0.0155 ± 0.029 | -0.011 ± 0.028 | -0.001 ± 0.018 | 0.021 ± 0.028 | -0.0045 ± 0.074 | -0.0045 ± 0.07
6 | KF3CT:MMP-9 | 0.012 ± 0.03 | 0.009 ± 0.027 | -0.011 ± 0.017 | -0.0265 ± 0.0092 | -0.0905 ± 0.0021 | -0.013 ± 0.0071 | -0.0065 ± 0.005 | -0.01 ± 0.0028 | -0.0195 ± 0.013 | -0.013 | -0.0705 ± 0.015 | -0.01 ± 0.02 | -0.0045 ± 0.012 | -0.022 ± 0.013 | -0.0115 ± 0.0021 | -0.008 ± 0.013 | -0.0145 ± 0.005
7 | BE3C:MMP-9 | 0 ± 0.0042 | -0.0005 ± 0.0092 | -0.0085 ± 0.0064 | 0.002 ± 0.0028 | 0.0015 ± 0.013 | 0.002 ± 0.0042 | 0.0015 ± 0.0064 | 0.0175 ± 0.033 | -0.0185 ± 0.018 | -0.117 ± 0.0035 | -0.215 ± 0.086 | -0.004 ± 0.0071 | -0.006 ± 0.0014 | -0.028 ± 0.0085 | -0.0125 ± 0.016 | -0.0205 ± 0.0035 | -0.0315 ± 0.0092
8 | lMphg:CCL3/MIP-1alpha | -0.032 ± 0.0028 | 0.007 ± 0.045 | -0.0155 ± 0.0064 | -0.021 ± 0.017 | -0.028 ± 0.024 | 0.0015 ± 0.019 | -0.003 ± 0.037 | -0.0035 ± 0.0021 | -0.0225 ± 0.011 | -0.007 | -0.0035 ± 0.0078 | -0.0105 ± 0.0064 | -0.0115 ± 0.029 | 0.021 ± 0.013 | -0.0305 ± 0.016 | -0.0395 ± 0.005 | -0.0135 ± 0.0092
9 | HDF3CGF:CXCL10/IP-10 | -0.012 ± 0.0042 | -0.002 ± 0.025 | -0.0165 ± 0.019 | 0.003 ± 0.0014 | 0.0305 ± 0.011 | 0.0105 ± 0.04 | -0.006 ± 0.016 | -0.0055 ± 0.011 | -0.0405 ± 0.036 | -0.113 ± 0.039 | -0.259 ± 0.054 | -0.0135 ± 0.029 | -0.0985 ± 0.013 | -0.281 ± 0.032 | -0.0075 ± 0.0078 | -0.0105 ± 0.005 | -0.0195 ± 0.0021
10 | KF3CT:TIMP-2 | 0.0115 ± 0.018 | -0.0195 ± 0.0064 | -0.045 ± 0.0085 | -0.0245 ± 0.04 | -0.033 ± 0.011 | 0.0155 ± 0.011 | 0.002 ± 0.0057 | -0.007 ± 0.0042 | -0.01 ± 0.0014 | -0.0085 ± 0.016 | 0.0225 ± 0.025 | 0.0145 ± 0.0021 | -0.0175 ± 0.0078 | -0.009 ± 0.023 | -0.0265 ± 0.005 | -0.0045 ± 0.029 | -0.0135 ± 0.022
11 | MyoF:PAI-I | 0.0005 ± 0.011 | 0.005 ± 0.0042 | -0.009 | -0.014 ± 0.0071 | 0.005 ± 0.0014 | 0.0065 ± 0.0035 | 0.002 ± 0.0071 | -0.001 | 0.003 ± 0.017 | -0.0105 ± 0.0064 | -0.0055 ± 0.0092 | -0.003 ± 0.0071 | 0.001 ± 0.023 | 0.0005 ± 0.018 | -0.011 ± 0.013 | 0.0065 ± 0.0078 | 0.0005 ± 0.0064
12 | 3C:CD62E/E-Selectin | 0.0095 ± 0.023 | 0.0075 ± 0.0092 | -0.009 ± 0.013 | -0.0115 ± 0.0078 | 0.004 ± 0.025 | -0.006 ± 0.0028 | -0.0025 ± 0.0035 | 0.015 ± 0.016 | 0.004 ± 0.0042 | 0.0175 ± 0.018 | 0.0695 ± 0.011 | -0.016 ± 0.0028 | -0.059 ± 0.0014 | -0.163 ± 0.05 | -0.0165 ± 0.022 | -0.008 ± 0.021 | 0.0045 ± 0.021
13 | HDF3CGF:Collagen I | -0.0035 ± 0.0078 | 0.0375 ± 0.005 | -0.0135 ± 0.043 | -0.0555 ± 0.013 | 0.0095 ± 0.081 | -0.005 ± 0.016 | -0.0215 ± 0.0021 | 0.012 ± 0.017 | 0.0175 ± 0.033 | 0.0045 ± 0.026 | 0.0065 ± 0.042 | -0.065 ± 0.02 | -0.0225 ± 0.042 | -0.0295 ± 0.054 | 0.0175 ± 0.037 | -0.003 ± 0.025 | 0.0345 ± 0.043
14 | HDF3CGF:CD54/ICAM-1 | -0.008 ± 0.0085 | -0.01 ± 0.014 | -0.009 | 0.002 ± 0.0085 | -0.02 ± 0.016 | -0.008 ± 0.0042 | 0.0005 ± 0.0021 | 0.0045 ± 0.0092 | -0.025 ± 0.013 | -0.0105 ± 0.00071 | -0.033 ± 0.014 | -0.028 ± 0.025 | -0.035 ± 0.025 | -0.131 ± 0.059 | -0.009 ± 0.016 | -0.0145 ± 0.0021 | 0.003 ± 0.011
15 | MyoF:alpha-SM Actin | 0.0085 ± 0.022 | -0.0005 ± 0.0092 | -0.0095 ± 0.005 | -0.023 ± 0.017 | -0.045 ± 0.0085 | 0.0105 ± 0.0064 | -0.0045 ± 0.0078 | -0.004 ± 0.02 | -0.0015 ± 0.023 | 0.004 ± 0.035 | 0.0105 ± 0.005 | -0.0075 ± 0.0078 | -0.0325 ± 0.00071 | -0.0665 ± 0.00071 | -0.016 ± 0.0099 | -0.0265 ± 0.0078 | -0.0195 ± 0.005
16 | HDF3CGF:Proliferation 72hr | 0.019 ± 0.018 | 0.001 ± 0.038 | 0.0335 ± 0.049 | 0.004 ± 0.023 | -0.0165 ± 0.022 | -0.011 ± 0.023 | 0.0255 ± 0.032 | -0.029 ± 0.013 | 0.141 ± 0.05 | 0.15 ± 0.048 | -0.544 ± 0.18 | -0.0325 ± 0.0092 | -0.124 ± 0.054 | -0.197 ± 0.041 | -0.0045 ± 0.013 | -0.0195 ± 0.015 | 0.0155 ± 0.05
